In the supplement of paper PMC13380429:

Key:
Details in all cases: 72 h
Calu-3 [1] = assay: cell viability relative to DMSO; higher = less toxic
HepG2 [2] = assay: as above
U2OS [3] = assay: as above
Vero E6 [4] = assay: as above
Calu-3 [5] = assay: relative viability EC50 (midpoint between 100% and the lowest measured viability); higher = less toxic
HepG2 [6] = assay: as above
U2OS [7] = assay: as above
Vero E6 [8] = assay: as above
Calu-3 [9] = assay: drug sensitivity score (DSS) for viability; higher = more toxic; extreme values may be limits of the assay
HepG2 [10] = assay: as above
U2OS [11] = assay: as above
Vero E6 [12] = assay: as above
Caco-2 [13] = assay: cell viability relative to DMSO; higher = less toxic
Caco-2 [14] = assay: drug sensitivity score (DSS) for viability; higher = more toxic; extreme values may be limits of the assay

Row | SMILES | cell viability (Calu-3 [1]; 1 nM) | cell viability (Calu-3 [1]; 10 nM) | cell viability (Calu-3 [1]; 100 nM) | cell viability (Calu-3 [1]; 1000 nM) | cell viability (Calu-3 [1]; 10000 nM) | cell viability (HepG2 [2]; 1 nM) | cell viability (HepG2 [2]; 10 nM) | cell viability (HepG2 [2]; 100 nM) | cell viability (HepG2 [2]; 1000 nM) | cell viability (HepG2 [2]; 10000 nM) | cell viability (U2OS [3]; 1 nM) | cell viability (U2OS [3]; 10 nM) | cell viability (U2OS [3]; 100 nM) | cell viability (U2OS [3]; 1000 nM) | cell viability (U2OS [3]; 10000 nM) | cell viability (Vero E6 [4]; 1 nM) | cell viability (Vero E6 [4]; 10 nM) | cell viability (Vero E6 [4]; 100 nM) | cell viability (Vero E6 [4]; 1000 nM) | cell viability (Vero E6 [4]; 10000 nM) | relative viability EC50 (Calu-3 [5]) | relative viability EC50 (HepG2 [6]) | relative viability EC50 (U2OS [7]) | relative viability EC50 (Vero E6 [8]) | drug sensitivity score (Calu-3 [9]) | drug sensitivity score (HepG2 [10]) | drug sensitivity score (U2OS [11]) | drug sensitivity score (Vero E6 [12]) | cell viability (Caco-2 [13]; 1 nM) | cell viability (Caco-2 [13]; 10 nM) | cell viability (Caco-2 [13]; 100 nM) | cell viability (Caco-2 [13]; 1000 nM) | cell viability (Caco-2 [13]; 10000 nM) | drug sensitivity score (Caco-2 [14])
1 | COc1ccccc1OC(=O)c1ccccc1OC(C)=O [guacetisal] | 105% | 90.9% | 108% | 102% | 97.4% | 97.1% | 115% | 104% | 104% | 88.4% | 97.3% | 96.8% | 99.2% | 104% | 99% | 101% | 105% | 101% | 102% | 98.9% | > 10 µM | > 10000 nM | > 10 µM | > 10 µM | 0 | 0 | 0 | 0 | – | – | – | – | – | –
2 | CON(C)C(=O)N1N=C(c2cc(F)ccc2F)S[C@@]1(CCCN)c1ccccc1 [filanesib] | 97% | 104% | 87.8% | 88.1% | 79.3% | 98% | 50% | 35.1% | 34.1% | 34.4% | 98.2% | 97.8% | 50.8% | 43.5% | 43.8% | 106% | 81.9% | 45.1% | 46.4% | 40.7% | > 10 µM | 5.6 nM | 0.0424 µM | 0.0172 µM | 2 | 26.8 | 16.7 | 20.2 | 96.7% | 76.6% | 68.7% | 68.4% | 62.1% | 12.9
3 | Clc1ccccc1C(c1ccccc1)(c1ccccc1)n1ccnc1 [clotrimazole] | 94.7% | 102% | 92.9% | 96.4% | 94% | 96.9% | 98% | 114% | 99.8% | 56.9% | 104% | 104% | 95.9% | 99.5% | 72% | 93.8% | 95.3% | 100% | 99.2% | 89.9% | > 10 µM | – | – | > 10 µM | 0 | 2.2 | 1.2 | 0 | 96% | 97.1% | 96.2% | 91.9% | 71% | 2.2
4 | O=C(/C=C/C=C/c1ccc2c(c1)OCO2)N1CCCCC1 [piperine] | 92.4% | 103% | 101% | 106% | 90.1% | 93.7% | 91.8% | 86.7% | 84.6% | 95.9% | 95.1% | 97.6% | 91.2% | 102% | 97.8% | 108% | 102% | 109% | 92.5% | 93.2% | > 10 µM | > 10000 nM | > 10 µM | > 10 µM | 0 | 0 | 0 | 0 | 94.4% | 106% | 96.6% | 97.4% | 70.9% | 1.6
5 | Cc1c2oc3c(C)ccc(C(=O)N[C@@H]4C(=O)N[C@H](C(C)C)C(=O)N5CCC[C@H]5C(=O)N(C)CC(=O)N(C)[C@@H](C(C)C)C(=O)O[C@@H]4C)c3nc-2c(C(=O)N[C@@H]2C(=O)N[C@H](C(C)C)C(=O)N3CCC[C@H]3C(=O)N(C)CC(=O)N(C)[C@@H](C(C)C)C(=O)O[C@@H]2C)c(N)c1=O [dactinomycin] | 99.5% | 75% | 41% | 29.7% | 37.4% | 99% | 42.5% | 15.8% | 4.4% | 4.1% | 98.8% | 74.2% | 34.2% | 1.1% | 1.3% | 101% | 104% | 91.9% | 3.5% | 8.7% | 0.0187 µM | 7.9 nM | 0.0387 µM | 0.248 µM | 22.9 | 35.8 | 27.7 | 18.7 | 108% | 83.7% | 54.8% | 63.4% | 57.4% | 16.4
6 | Cc1c2oc3c(C)ccc(C(=O)N[C@@H]4C(=O)N[C@@H](C(C)C)C(=O)N5CCC[C@H]5C(=O)N(C)CC(=O)N(C)[C@@H](C(C)C)C(=O)O[C@@H]4C)c3nc-2c(C(=O)N[C@@H]2C(=O)N[C@@H](C(C)C)C(=O)N3CCC[C@H]3C(=O)N(C)CC(=O)N(C)[C@@H](C(C)C)C(=O)O[C@@H]2C)c(N)c1=O [actinomycin-d] | 102% | 71.4% | 31.7% | 24.5% | 36.7% | 113% | 41.4% | 15.9% | 3.1% | 5.1% | 105% | 65.9% | 31.5% | 0.7% | 1% | 101% | 102% | 79.5% | 6.9% | 7.9% | 0.0152 µM | 8.5 nM | 0.0296 µM | 0.166 µM | 25.9 | 36.5 | 29.2 | 20.1 | 95.6% | 77.5% | 58.6% | 61% | 65.9% | 15.2
7 | CC[N+](CC)(CC)CCOc1ccc(/C=C/c2ccccc2)cc1 [MG-624] | 101% | 103% | 94.3% | 95.4% | 93.3% | 106% | 102% | 102% | 99.3% | 78.9% | 101% | 103% | 100% | 104% | 93% | 97.9% | 91% | 88.6% | 97.8% | 97.4% | > 10 µM | > 10000 nM | > 10 µM | > 10 µM | 0 | 0.7 | 0 | 0 | 101% | 100% | 93.6% | 89.3% | 68.7% | 2.3
8 | CC(C)(C)NC(=O)[C@@H]1CN(Cc2cccnc2)CCN1C[C@@H](O)C[C@@H](Cc1ccccc1)C(=O)N[C@H]1c2ccccc2C[C@H]1O [indinavir] | 97% | 107% | 98.4% | 102% | 97.9% | 99.4% | 88.7% | 109% | 93.3% | 79.8% | 98.4% | 98.2% | 92.5% | 103% | 93.5% | 117% | 78% | 97.6% | 104% | 89.9% | > 10 µM | > 10000 nM | > 10 µM | > 10 µM | 0 | 1.4 | 0 | 0 | – | – | – | – | – | –
9 | COc1ccccc1OCCNCC(O)COc1cccc2[nH]c3ccccc3c12 (stereo unspecified) [carvedilol] | 97% | 92.2% | 102% | 89.2% | 97.4% | 99.3% | 108% | 88.7% | 100% | 86.6% | 96.4% | 100% | 103% | 93.1% | 92.3% | 100% | 102% | 94.2% | 107% | 94.7% | > 10 µM | > 10000 nM | > 10 µM | > 10 µM | 0 | 0.1 | 0 | 0 | – | – | – | – | – | –
10 | Cc1c(C(=O)NCCCO)cnn1-c1nc(-c2cccc(C(F)(F)F)c2)cs1 | 107% | 102% | 112% | 104% | 94.3% | 99.3% | 91.1% | 96% | 106% | 52.9% | 101% | 103% | 93.3% | 98.1% | 83.9% | 98.1% | 95.9% | 102% | 97.7% | 90.3% | > 10 µM | – | > 10 µM | > 10 µM | 0 | 2.1 | 0.5 | 0 | 93.5% | 91.4% | 96.1% | 102% | 67.1% | 1.4
11 | NC1(C(=O)N[C@@H](CCO)c2ccc(Cl)cc2)CCN(c2ncnc3[nH]ccc23)CC1 [AZD5363] | 113% | 101% | 102% | 85.6% | 75.6% | 99.3% | 101% | 93.8% | 84.8% | 66.6% | 97.4% | 94.7% | 92.5% | 90.9% | 57.5% | 98.7% | 99.9% | 96.4% | 94.8% | 90.8% | > 10 µM | – | – | > 10 µM | 2.5 | 3 | 3.6 | 0 | 100% | 102% | 93.3% | 74.8% | 54.6% | 5.3
